Here are results for four compounds from publication PMC9841589, “Identification of 2-Aminoacyl-1,3,4-thiadiazoles as Prostaglandin E2 and Leukotriene Biosynthesis Inhibitors” (ACS Medicinal Chemistry Letters, 2022).

Each structure is given as a SMILES string.

The target in one test is T1, COX-1 (Ovis aries, UniProt P05979).
T1 sequence (P05979 25-600): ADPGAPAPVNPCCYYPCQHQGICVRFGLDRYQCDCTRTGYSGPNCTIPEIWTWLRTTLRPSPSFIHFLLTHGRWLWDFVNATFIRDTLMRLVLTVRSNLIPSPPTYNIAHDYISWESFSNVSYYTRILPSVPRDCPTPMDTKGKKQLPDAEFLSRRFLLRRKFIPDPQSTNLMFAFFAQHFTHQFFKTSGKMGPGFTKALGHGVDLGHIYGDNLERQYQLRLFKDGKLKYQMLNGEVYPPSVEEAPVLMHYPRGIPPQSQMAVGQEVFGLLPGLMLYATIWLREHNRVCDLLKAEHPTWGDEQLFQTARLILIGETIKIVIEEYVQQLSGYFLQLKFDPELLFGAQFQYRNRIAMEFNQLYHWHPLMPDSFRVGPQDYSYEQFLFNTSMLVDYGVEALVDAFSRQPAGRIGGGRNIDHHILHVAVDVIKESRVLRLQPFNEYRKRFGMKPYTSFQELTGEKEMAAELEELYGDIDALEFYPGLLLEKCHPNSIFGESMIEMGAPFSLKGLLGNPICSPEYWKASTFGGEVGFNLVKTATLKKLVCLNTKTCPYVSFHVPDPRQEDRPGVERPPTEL
Put plainly: Cell-free COXs activity assay, COX-1. The class given is biochemical, ovine. As to conditions: percentage of uninhibited control (100%), n = 3, n.i.: no inhibitory activity observed, read-out: COX-1 residual activity (%). On the procedure: Cell-free COXs activity assay
Isolated COX-1 (ovine) and COX-2 (human) were used for the evaluation of the activity of test compounds 3, 6, 7, and 9 on cyclooxygenases. COXs were diluted using Tris buffer (100 mM, pH = […]
8) plus 5 mM glutathione, 100 µM EDTA and 5 µM hemoglobin) to a final concentration of 50 U/mL for COX-1 and 20 U/mL for COX-2, and pre-incubated with test compounds 3, 6, 7, and 9 (10 µM) or vehicle (0.1% DMSO) over 5 min at rt. After 1 min at 37 °C, reactions were started after addition of arachidonic acid to a final concentration of 5 µM for COX-1 and 2 µM for COX-2. After 5 min at 37 °C, 1 mL of ice-cold methanol was added for stopping the reactions on ice. Then, PGB 1 as internal standard and 530 µl PBS plus HCl were added, and solid-phase extraction was performed as reported before.4-6, 17-19 COXs product formation (12-HHT) was determined using RP-HPLC. 4-6, 17-19 Indomethacin (10 µM) and celecoxib (5 µM) were used as reference drugs.
Expression, purification and activity assay of human recombinant sEH
Human recombinant sEH was expressed in Sf9 cells and was infected using a baculovirus, provided by Dr. B. Hammock, University of California, Davis, CA. After 72 hours, cells were pelleted and sonicated (3 × 10 sec) at 4 °C in lysis buffer (50 mM NaHPO 4, pH = 8, 300 mM NaCl, 10% glycerol, 1 mM EDTA, 1 mM phenylmethanesulfonyl fluoride, 10 µg/mL of leupeptin, and 60 µg/mL of soybean trypsin inhibitor). Lysates were centrifuged over 60 min at 4 °C (100,000 × g), and supernatants were collected and submitted to a benzylthio-sepharose-affinity chromatography for sEH purification by elution with 4-fluorochalcone oxide in PBS plus 1 mM DTT and 1 mM EDTA.720 […]
DMSO) for 15 min at rt. 50 µM 3-phenyl-cyano(6-methoxy-2-naphthalenyl)methyl ester-2-oxiraneacetic acid (PHOME), a non-fluorescent compound, was added for starting the reaction.
PHOME is enzymatically converted into a fluorescent compound, 6-methoxy-naphtaldehyde, detectable by using a spectrofluorometer setting λ em = 465 nm, λ ex = 330 nm. After 60 min, ZnSO 4

For test [1], the system named is 5-LO product formation in human M1 macrophages. In words: Determination of LO products in human macrophages. The class given is cell-based. As to conditions: 10 µM, activated by Staphylococcus aureus for 90 min. On the procedure:
Figure S4. Human monocyte-derived macrophages were pre-treated with test compounds (10 µM) or vehicle 15 min prior stimulation. Cells were then stimulated with S. aureus for 90 min. Data are expressed as percentage of the mean of the 100% control DMSO of n=3 experiments. […]
Determination of LO products in human macrophages
Human M1 macrophages (2 x 10^6 /mL) were pre-treated with test compounds or vehicle (DMSO, 0.1%) for 15 min. Afterward, 1% Staphylococcus aureus 6850wt-conditioned medium (SACM) was added for 90 minutes at 37 °C in order to induce LO product formation. The reaction was stopped by transferring supernatants (1 mL) into 2 mL ice-cold MeOH. After addition of the deuterated LM standards (200 nM d8-5S-HETE, d4-LTB4, d5-LXA4, d5-RvD2, d4-PGE2 and 10 µM d8-AA; Cayman Chemical/Biomol GmbH, Hamburg, Germany), samples were kept at −20 °C for 60 min and then centrifuged (1,200×g, 4°C, 10 min). Solid-phase C18 cartridges were equilibrated with 6 mL methanol before the addition of 6 mL H2O. Then, 9 mL acidified H2O (pH 3.5, HCl) was added, and the samples were loaded onto the conditioned C18 columns that were subsequently washed with 6 mL H2O, followed by 6 mL n-hexane. The LM were eluted with 6 mL of methyl formate, samples were brought to dryness using an evaporation system (TurboVap LV, Biotage) and immediately […]
resuspended in methanol-water (50:50 vol/vol) for UPLC-MS-MS automated injections. The UPLC-MS-MS system consisted of an Acquity UPLC BEH C18 column (1.7 µm, 2.1 × 50 mm, Waters) and an AcquityTM UPLC (Waters) as well as a QTRAP 5500 mass spectrometer (Sciex, Darmstadt, Germany) equipped with an electrospray ionization source. The QTrap 5500 was operated in negative ionization mode using scheduled multiple reaction monitoring (MRM) coupled with the information-dependent acquisition (IDA) and an enhanced product ion scan (EPI). The scheduled MRM window was 90 s, and each LM parameter was optimized individually. LOX product analysis, using an MRM method with diagnostic ion fragments and identification, was performed as described previously.922 […]
Following incubations of 24 h, cells were collected with a cell scraper and, after centrifugation at 14000 × g for 10 min at 4 °C, the supernatant was collected and stored at −80°C for ELISA analysis 1023.
Male CD-1 mice (25–30 g of weight) were obtained from Charles River (Milan, Italy) and kept in an animal care facility under controlled temperature, humidity, with ad libitum access to water and standard laboratory chow diet. All experimental procedures were carried out according to the international and national law and policies (EU Directive 2010/63/EU for animal experiments, ARRIVE guidelines, and the Basel declaration including the 3R concept)11,1224, 25. […]

Take `Cc1cc(C(=O)Nc2nnc(-c3ccc(-c4ccccc4N)cc3)s2)cc(Cl)n1` [compound 6]: the remaining activity at 10 µM at COX-1 is 82.3%. Further, the “cellular 5-LO product formation in pro-inflammatory macrophages” value (“cellular 5-LO product formation” for short) in test [1] is listed as “potent inhibition of cellular 5-LO product formation”.
The like results for `O=C(Nc1nnc(-c2ccc(-c3cccc(O)c3)cc2)s1)c1ccccc1Br` [compound 3] were, in that order, 104% and “potent inhibition of cellular 5-LO product formation”.
`Nc1ccccc1-c1ccc(-c2nnc(NC(=O)c3c(Cl)ccnc3Cl)s2)cc1` [compound 9]: the remaining activity at 10 µM on COX-1 was found to be 107%. Besides, the “cellular 5-LO product formation” value in test [1] is reported as “potent inhibition of cellular 5-LO product formation”.
Turning to `Nc1ccccc1-c1ccc(-c2nnc(NC(=O)c3ccccc3Br)s2)cc1` [compound 7], the remaining activity at 10 µM on COX-1 came out at 98.1%. Moreover, the “cellular 5-LO product formation” value in test [1] is “potent inhibition of cellular 5-LO product formation”.
